Assay results published in patent publication US20030232801A1, “Identification of compounds for the treatment or prevention of proliferative diseases” (priority 2001, published 2003).

Legend:
[1] = Cellular toxicity, MTS cell viability, 6D-2 cells; format: cell-based, human; conditions: Homo sapiens, MCF7, MTS viability
Procedure: (§1) 6D-2 cells (MCF-7 human breast cancer cells stably transfected with luciferase linked to the 5′ and 3′UTRs of human HER2) were added to 96-well plates at 7500 cells per well in 200 μL medium and incubated for 24 hours at 100% humidity, 5% CO2, and 37° C. Compounds were diluted from DMSO stock solutions into medium and were added at various concentrations. The 6D-2 cells were incubated for 16 hours at which time the volume of medium in each well was reduced to 100 μL using a plate washer. 20 μL of MTS cell viability reagent (Promega, Madison, Wis.) was then added to each well, and the plates were incubated for 1-4 hours. A plate containing wells with 100 μL medium plus MTS reagent was prepared to determine the background reading. The plates were read on the Wallac 2 plate reader (PerkinElmer Life Science, Boston, Mass.) at 490 nm. Percent viability was calculated as (O.D. of compound treated cells−background O.D.)/(O.D. of DMSO treated cells−background O.D.)×100. MT-4 cells (adult human T-cell leukemia cells) were plated at 1.5×10^5 cells per well in 200 μL medium and incubated for at least one hour before the addition of compounds. The cells were incubated for 5 days at 100% humidity, 5% CO2, and 37° C. Cell viability was determined as described for 6D-2 cells.
(§2) Compounds of the invention containing a pyrrolidine substituent were tested for toxicity to cancerous and non-cancerous cells. 6D-2 cellular activity is representative of potency as an antitumor agent. MT-4 cellular activity is representative of general toxicity. A high IC50 for MT-4 cells and a low IC50 for 6D-2 cells is indicative of a compound of potential therapeutic use in treating or preventing proliferative diseases, such as cancer.

[2] = test system: primary peripheral blood mononuclear cells (PBMCs); test: Viability of PBMCs on administration of MES 51151 (FIG. 3); format: cell-based; conditions: concentration of 10 μM
Procedure: (§3) FIG. 3 is a graph of the effect of administration of MES 51151 on the viability of 6D-2 cells and PBMCs.
(§4) Toxicity of the transfected cells increased with increased concentration of MES 51151 administered to the cells (FIG. 3, showing the percent viable 6D-2 cells compared to control cells). MES 51151 was administered to primary peripheral blood mononuclear cells (PBMCs) to test for its effect on cell toxicity. MES 51151 was not toxic to the PBMCs (FIG. 3, showing the percent viable PBMCs compared to control cells). The EC50 of MES 51151 when administered to the 6D-2 cancer cell line was less than 100 nM, yet MES 51151 was not toxic to PBMCs even when administered at a concentration of 10 μM. Therefore, the therapeutic index of MES 51151 is at least 100, and may be even higher. […] Thus, this compound may potentially be employed for the treatment or prevention of proliferative diseases, including cancer.

[3] = test system: MT-4 cells (adult human T-cell leukemia cells); test: Cellular toxicity, MTS cell viability, MT-4 cells; format: cell-based; conditions: Homo sapiens, MT4, 120 h, 5 day, MTS viability
Procedure: as §1, §2

6D-2 cancer cell line = test: Viability of 6D-2 cells on administration of MES 51151 (FIG. 3); format: cell-based, human
Procedure: as §3, §4

[4] = test system: luciferase reporter operatively linked to HER2 5′ and 3′UTRs; test: HER2 UTR/luciferase reporter screening assay in stably transfected MCF7 (6D-2) cells; format: cell-based, human; conditions: HER2 5′ and 3′UTR/luciferase reporter
Procedure: The HER2 UTR/reporter nucleic acid stably transfected cell system described above was used to identify compounds that either increased or decreased the level of HER2 translation efficiency. Small molecules from a library of candidate compounds (MES library, Message Pharmaceuticals, Malvern, Pa., containing, for example, small molecules from a commercially available Nanoscale Combinatorial Synthesis Inc. (Mountain View, Calif.) library) were administered to 6D-2 cells containing the stably transfected luciferase reporter nucleic acid sequence operatively linked to HER2 5′ and 3′UTRs to identify compounds that modulate HER2 translation efficiency. Each candidate compound was administered at a concentration of 10 μM.
After 16 hours of exposure to the compound, the level of luciferase protein activity was measured in candidate compound-treated cells containing the luciferase construct only, or in cells containing the luciferase/UTRs that were not treated with the candidate compound, or are treated with the candidate compound vehicle only (control cells), and compared to activity levels in candidate compound-treated cells containing the luciferase construct with the UTRs (test cells). […]

Question: Which IC50 [1] does the source give for `CC(=O)Nc1ccc(NC2=C(N3CCCC3)C(=O)c3ccccc3C2=O)cc1` [Example 2] here?
Answer: 0.25 µM

Question: And the “Toxicity to PBMCs” value [2]?
Answer: not toxic

Question: What about the IC50 [3] of the same molecule?
Answer: 0.08 µM

Question: And the Therapeutic index (6D-2 cancer cell line; 6D-2 EC50 versus non-toxic concentration in PBMCs)?
Answer: at least 100

Question: What about the EC50 (6D-2 cancer cell line; Homo sapiens, 6D-2 cells, toxicity (percent viable cells compared to control), read-out: EC50 when administered to the 6D-2 cancer cell line) of the same molecule?
Answer: < 0.1 µM

Question: What about the Luciferase activity [4] of the same molecule?
Answer: reduced luciferase activity through toxicity
